Results reported in ChEMBL document CHEMBL3616440, “Non-basic azolotriazinone MCHR1 antagonists for the treatment of obesity: An empirical brain-exposures-driven candidate selection for in vivo efficacy studies” (Bioorg Med Chem Lett, 2015).

What was measured:
Nucleic Acid = experiment: Ratio of drug level in Sprague-Dawley rat brain to plasma assessed as 6-(4-chlorophenyl)-3-(4-(2-hydroxy-2-methylpropoxy)-3-methoxyphenyl)pyrrolo[1,2-f][1,2,4]triazin-4(3H)-one level at 10 mg/kg, po qd; format: ADME, organism-based
Rattus norvegicus [1] = experiment: Antiobesity activity in Sprague-Dawley rat assessed as body weight reduction at 10 mg/kg, po qd after 4 days relative to control; format: functional; settings: 96 h
Brain [2] = experiment: Free drug level in Sprague-Dawley rat brain assessed as 6-(4-chlorophenyl)-3-(4-(2-hydroxy-2-methylpropoxy)-3-methoxyphenyl)pyrrolo[1,2-f][1,2,4]triazin-4(3H)-one level at 30 mg/kg, po qd at 20 hrs; format: ADME, organism-based; settings: in vivo
Plasma [3] = experiment: Plasma concentration in Sprague-Dawley rat assessed as 6-(4-chlorophenyl)-3-(4-(2-hydroxy-2-methylpropoxy)-3-methoxyphenyl)pyrrolo[1,2-f][1,2,4]triazin-4(3H)-one level at 10 mg/kg, po qd at 8 hrs; format: ADME, organism-based; settings: in vivo
Liver [4] = experiment: Prodrug conversion in Sprague-Dawley rat liver assessed as 3-(4-(6-(4-chlorophenyl)-4-oxopyrrolo[1,2-f][1,2,4]triazin-3(4H)-yl)-2-methoxyphenoxy)-2-hydroxy-2-methylpropanoic acid formation at 10 mg/kg, po qd at 20 hrs post dose; format: ADME, organism-based; settings: in vivo
[5] = Ratio of free drug level in brain of Sprague-Dawley rat assessed as 6-(4-chlorophenyl)-3-(4-(2-hydroxy-2-methylpropoxy)-3-methoxyphenyl)pyrrolo[1,2-f][1,2,4]triazin-4(3H)-one level at 3 mg/kg, po to Ki for rat MCHR1; format: ADME, organism-based; settings: in vivo
[6] = Ratio of free drug level in brain of Sprague-Dawley rat assessed as 6-(4-chlorophenyl)-3-(4-(2-hydroxy-2-methylpropoxy)-3-methoxyphenyl)pyrrolo[1,2-f][1,2,4]triazin-4(3H)-one level at 30 mg/kg, po to Ki for rat MCHR1; format: ADME, organism-based; settings: in vivo
Brain [7] = experiment: Free drug level in Sprague-Dawley rat brain assessed as 6-(4-chlorophenyl)-3-(4-(2-hydroxy-2-methylpropoxy)-3-methoxyphenyl)pyrrolo[1,2-f][1,2,4]triazin-4(3H)-one level at 3 mg/kg, po qd at 20 hrs; format: ADME, organism-based; settings: in vivo
Rattus norvegicus [8] = experiment: Antiobesity activity in Sprague-Dawley rat assessed as body weight reduction at 30 mg/kg, po qd after 4 days relative to control; format: functional; settings: 96 h
Liver [9] = experiment: Prodrug conversion in Sprague-Dawley rat liver assessed as 6-(4-chlorophenyl)-3-(4-(2,3-dihydroxy-2-methylpropoxy)-3-methoxyphenyl)pyrrolo[1,2-f][1,2,4]triazin-4(3H)-one formation at 10 mg/kg, po qd at 20 hrs post dose; format: ADME, organism-based; settings: in vivo
[10] = Cmax in Sprague-Dawley rat at 10 mg/kg, po qd after 1.5 hrs; format: ADME, organism-based; design: dose 10 mg/kg, route oral; settings: in vivo
Liver [11] = experiment: Prodrug conversion in Sprague-Dawley rat liver assessed as 6-(4-chlorophenyl)-3-(4-(2,3-dihydroxypropoxy)-3-methoxyphenyl)pyrrolo[1,2-f][1,2,4]triazin-4(3H)-one formation at 10 mg/kg, po qd at 20 hrs post dose; format: ADME, organism-based; settings: in vivo
Brain [12] = experiment: Free drug level in Sprague-Dawley rat brain assessed as 6-(4-chlorophenyl)-3-(4-(2-hydroxy-2-methylpropoxy)-3-methoxyphenyl)pyrrolo[1,2-f][1,2,4]triazin-4(3H)-one level at 10 mg/kg, po qd at 20 hrs; format: ADME, organism-based; settings: in vivo
Brain [13] = experiment: Drug concentration in Sprague-Dawley rat brain assessed as 6-(4-chlorophenyl)-3-(4-(2-hydroxy-2-methylpropoxy)-3-methoxyphenyl)pyrrolo[1,2-f][1,2,4]triazin-4(3H)-one level at 10 mg/kg, po qd at 20 hrs; format: ADME, organism-based; settings: in vivo, read-out: Drug uptake
Brain [14] = experiment: Drug concentration in Sprague-Dawley rat brain assessed as 6-(4-chlorophenyl)-3-(4-(2-hydroxy-2-methylpropoxy)-3-methoxyphenyl)pyrrolo[1,2-f][1,2,4]triazin-4(3H)-one level at 10 mg/kg, po qd at 8 hrs; format: ADME, organism-based; settings: in vivo
Rattus norvegicus [15] = experiment: AUC (0 to 8 hrs ) in Sprague-Dawley rat assessed as 6-(4-chlorophenyl)-3-(4-(2-hydroxy-2-methylpropoxy)-3-methoxyphenyl)pyrrolo[1,2-f][1,2,4]triazin-4(3H)-one level at 10 mg/kg, po qd; format: ADME, organism-based; design: dose 10 mg/kg, time < 8 hr, route oral; settings: in vivo
Liver [16] = experiment: Prodrug conversion in Sprague-Dawley rat liver assessed as 3-(4-(6-(4-chlorophenyl)-4-oxopyrrolo[1,2-f][1,2,4]triazin-3(4H)-yl)-2-methoxyphenoxy)-2-hydroxypropanoic acid formation at 10 mg/kg, po qd at 20 hrs post dose; format: ADME, organism-based; settings: in vivo
Rattus norvegicus [17] = experiment: Antiobesity activity in Sprague-Dawley rat assessed as body weight reduction at 3 mg/kg, po qd after 4 days relative to control; format: functional; settings: 96 h
[18] = Ratio of free drug level in brain of Sprague-Dawley rat assessed as 6-(4-chlorophenyl)-3-(4-(2-hydroxy-2-methylpropoxy)-3-methoxyphenyl)pyrrolo[1,2-f][1,2,4]triazin-4(3H)-one level at 10 mg/kg, po to Ki for rat MCHR1; format: ADME, organism-based; settings: in vivo
[19] = AUC (0 to 8 hrs ) in Sprague-Dawley rat at 10 mg/kg, po qd; format: ADME, organism-based; design: time < 8 hr, dose 10 mg/kg, route oral; settings: in vivo
Brain [20] = experiment: Drug concentration in Sprague-Dawley rat brain assessed as 6-(4-chlorophenyl)-3-(4-(2-hydroxy-2-methylpropoxy)-3-methoxyphenyl)pyrrolo[1,2-f][1,2,4]triazin-4(3H)-one level at 30 mg/kg, po qd at 20 hrs; format: ADME, organism-based; settings: in vivo, read-out: Drug uptake
Brain [21] = experiment: Drug concentration in Sprague-Dawley rat brain assessed as 6-(4-chlorophenyl)-3-(4-(2-hydroxy-2-methylpropoxy)-3-methoxyphenyl)pyrrolo[1,2-f][1,2,4]triazin-4(3H)-one level at 3 mg/kg, po qd at 20 hrs; format: ADME, organism-based; settings: in vivo, read-out: Drug uptake
Plasma [22] = experiment: Fraction unbound in Sprague-Dawley rat plasma assessed as 6-(4-chlorophenyl)-3-(4-(2-hydroxy-2-methylpropoxy)-3-methoxyphenyl)pyrrolo[1,2-f][1,2,4]triazin-4(3H)-one level; format: ADME, cell-free
Rattus norvegicus [23] = experiment: Cmax in Sprague-Dawley rat assessed as 6-(4-chlorophenyl)-3-(4-(2-hydroxy-2-methylpropoxy)-3-methoxyphenyl)pyrrolo[1,2-f][1,2,4]triazin-4(3H)-one level at 10 mg/kg, po qd at 4 hrs; format: ADME, organism-based; design: dose 10 mg/kg, route oral; settings: in vivo
[24] = target: Melanin-concentrating hormone receptor 1 (Rattus norvegicus, UniProt P97639); experiment: Displacement of [125I][Phe13,Tyr19]-MCH from rat MCHR1 by scintillation counting analysis
[25] = target: Melanin-concentrating hormone receptor 1 (Homo sapiens, UniProt Q99705); experiment: Antagonist activity at human MCHR1 expressed in HEK293 cells assessed as inhibition of MCH-induced Ca2+ influx for 120 mins by FLIPR assay; format: functional, cell-based
Brain [26] = experiment: Drug concentration in Sprague-Dawley rat brain assessed as 6-(4-chlorophenyl)-3-(4-(2-hydroxy-2-methylpropoxy)-3-methoxyphenyl)thieno[3,2-d]pyrimidin-4(3H)-one level at 10 mg/kg, po qd at 20 hrs; format: ADME, organism-based; settings: in vivo, read-out: Drug uptake
[27] = target: Melanin-concentrating hormone receptor 1 (Rattus norvegicus) (UniProt P97639); settings: 10 uM
Description: Displacement of [125I][Phe13,Tyr19]-MCH from rat MCHR1 at 10 uM by scintillation counting analysis

Rattus norvegicus [28] = experiment: Toxicity in oral-dosed Sprague-Dawley rat assessed as biliary lesion after 30 days; format: organism-based; settings: in vivo, 720 h
Brain [29] = experiment: Free drug level in Sprague-Dawley rat brain assessed as 6-(4-chlorophenyl)-3-(4-(2-hydroxy-2-methylpropoxy)-3-methoxyphenyl)thieno[3,2-d]pyrimidin-4(3H)-one level at 10 mg/kg, po qd at 20 hrs; format: ADME, organism-based; settings: in vivo
Rattus norvegicus [30] = experiment: Prodrug conversion in oral-dosed Sprague-Dawley rat assessed as 6-(4-chlorophenyl)-3-(4-(2,3-dihydroxy-2-methylpropoxy)-3-methoxyphenyl)thieno[3,2-d]pyrimidin-4(3H)-one formation; format: ADME, organism-based; settings: in vivo
[31] = Ratio of free drug level in brain of Sprague-Dawley rat assessed as 6-(4-chlorophenyl)-3-(4-(2-hydroxy-2-methylpropoxy)-3-methoxyphenyl)thieno[3,2-d]pyrimidin-4(3H)-one level at 10 mg/kg, po to Ki for rat MCHR1; format: ADME, organism-based; settings: in vivo
Rattus norvegicus [32] = experiment: Prodrug conversion in oral-dosed Sprague-Dawley rat assessed as 3-(4-(6-(4-chlorophenyl)-4-oxothieno[3,2-d]pyrimidin-3(4H)-yl)-2-methoxyphenoxy)-2-hydroxy-2-methylpropanoic acid formation; format: ADME, organism-based; settings: in vivo
Plasma [33] = experiment: Fraction unbound in Sprague-Dawley rat plasma assessed as 6-(4-chlorophenyl)-3-(4-(2-hydroxy-2-methylpropoxy)-3-methoxyphenyl)thieno[3,2-d]pyrimidin-4(3H)-one level; format: ADME, cell-free

Chain of Melanin-concentrating hormone receptor 1 (Homo sapiens, UniProt Q99705) (Q99705 whole entry): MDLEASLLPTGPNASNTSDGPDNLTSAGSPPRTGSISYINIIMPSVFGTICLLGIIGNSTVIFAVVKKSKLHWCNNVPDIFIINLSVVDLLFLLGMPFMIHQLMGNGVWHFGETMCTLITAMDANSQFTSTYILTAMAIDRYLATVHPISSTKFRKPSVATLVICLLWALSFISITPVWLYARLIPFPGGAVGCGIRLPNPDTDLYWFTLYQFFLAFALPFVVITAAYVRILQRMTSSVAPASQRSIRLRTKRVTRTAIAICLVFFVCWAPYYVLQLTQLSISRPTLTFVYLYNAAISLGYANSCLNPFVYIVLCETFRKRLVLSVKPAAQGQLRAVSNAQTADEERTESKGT
Chain of Melanin-concentrating hormone receptor 1 (Rattus norvegicus, UniProt P97639) (P97639 whole entry): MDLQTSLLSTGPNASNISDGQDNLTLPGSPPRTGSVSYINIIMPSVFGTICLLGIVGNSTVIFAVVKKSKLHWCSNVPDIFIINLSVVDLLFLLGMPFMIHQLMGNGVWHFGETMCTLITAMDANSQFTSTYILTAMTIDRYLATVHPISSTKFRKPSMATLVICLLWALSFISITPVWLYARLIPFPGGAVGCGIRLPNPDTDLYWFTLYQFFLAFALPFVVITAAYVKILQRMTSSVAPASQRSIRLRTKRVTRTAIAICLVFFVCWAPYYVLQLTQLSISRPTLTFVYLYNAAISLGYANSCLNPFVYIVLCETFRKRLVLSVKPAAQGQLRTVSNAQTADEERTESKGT
Chain of Melanin-concentrating hormone receptor 1 (Rattus norvegicus) (P97639 whole entry): as above

SMILES: COc1cc(-n2cnn3cc(-c4ccc(Cl)cc4)cc3c2=O)ccc1OCC(C)(C)OC(=O)CN
- BPR (Nucleic Acid): 5
- inhibition in vivo at 10 mg/kg (Rattus norvegicus [1]): 4.7%
- Drug uptake(free) (Brain [2]): 47 nM
- concentration (Plasma [3]): 903 nM
- Drug metabolism (Liver [4]): 2.4 µM
- Ratio [5]: 3.5
- Ratio [6]: 26
- Drug uptake(free) (Brain [7]): 6.3 nM
- inhibition in vivo at 30 mg/kg (Rattus norvegicus [8]): 6.9%
- Drug metabolism (Liver [9]): 10 µM
- Cmax [10]: 5 nM
- Drug metabolism (Liver [11]): 10 µM
- Drug uptake(free) (Brain [12]): 16 nM
- concentration (Brain [13]): 4.04 µM
- Drug uptake (Brain [14]): 4.551 µM
- AUC (Rattus norvegicus [15]): 8.2 µM·h
- Drug metabolism (Liver [16]): 2.4 µM
- inhibition in vivo at 3 mg/kg (Rattus norvegicus [17]): 3.6%
- Ratio [18]: 8.9
- AUC at 8 h [19]: 0.015 µM·h
- concentration (Brain [20]): 11.7 µM
- concentration (Brain [21]): 1570 nM
- Fu (Plasma [22]): 0.4%
- Cmax (Rattus norvegicus [23]): 1570 nM

SMILES: COc1cc(-n2cnc3cc(-c4ccc(Cl)cc4)sc3c2=O)ccc1OCC(C)(C)O
- Ki [24]: 7.2 nM
- IC50 [25]: 16 nM
- concentration (Brain [26]): 1610 nM
- inhibition [27]: > 90%
- Activity (Rattus norvegicus [28]): Toxic

SMILES: COc1cc(-n2cnc3cc(-c4ccc(Cl)cc4)sc3c2=O)ccc1OCC(C)(C)OC(=O)CN
- inhibition in vivo at 10 mg/kg (Rattus norvegicus [1]): 6.9%
- Drug uptake(free) (Brain [29]): 11.3 nM
- Drug metabolism (Rattus norvegicus [30]): metabolite_detected
- Ratio [31]: 1.6
- Drug metabolism (Rattus norvegicus [32]): metabolite_detected
- Fu (Plasma [33]): 0.7%
